Experiments:
corn [1] = experiment: Test A preemergence; format: in vivo, Zea mays; conditions: for Corn plant response rating (0 to 100 scale): 125 g ai/ha; for Corn plant response rating: 500 g ai/ha, 0 to 100 scale where 0 is no effect and 100 is complete control
Procedure, shortened: (§1)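 Greenhouse pot test, loam/sand soil. Formulation: non-phytotoxic solvent mix plus surfactant. Pre: directed spray onto soil after sowing. Post: plants at 1–2 leaf, 2–10 cm. Rated visually vs untreated controls at ~10 d, 0 (no effect) to 100 (complete control).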

wheat [2] = experiment: Test A postemergence; format: in vivo, Triticum aestivum; conditions: 0 to 100 scale where 0 is no effect and 100 is complete control; for Wheat plant response rating: 125 g ai/ha; for Plant response rating, Wheat: 500 g ai/ha
Procedure, shortened: as §1

pigweed [3] = experiment: Test A postemergence; format: in vivo, Amaranthus retroflexus; conditions: 0 to 100 scale where 0 is no effect and 100 is complete control; for Pigweed plant response rating: 125 g ai/ha; for Plant response rating, Pigweed: 500 g ai/ha
Procedure, shortened: as §1

velvetleaf [4] = experiment: Test A postemergence; format: in vivo, Abutilon theophrasti; conditions: 0 to 100 scale where 0 is no effect and 100 is complete control; for Velvetleaf plant response rating: 125 g ai/ha; for Plant response rating, Velvetleaf: 500 g ai/ha
Procedure, shortened: as §1

corn [5] = experiment: Test A postemergence; format: in vivo, Zea mays; conditions: 0 to 100 scale where 0 is no effect and 100 is complete control; for Corn plant response rating: 125 g ai/ha; for Plant response rating, Corn: 500 g ai/ha
Procedure, shortened: as §1

barnyardgrass [6] = experiment: Test A postemergence; format: in vivo, Echinochloa crus-galli; conditions: 0 to 100 scale where 0 is no effect and 100 is complete control; for Barnyardgrass plant response rating: 125 g ai/ha; for Plant response rating, Barnyardgrass: 500 g ai/ha
Procedure, shortened: as §1

morningglory [7] = experiment: Test A preemergence; format: in vivo, Ipomoea spp.; conditions: for Morningglory plant response rating (0 to 100 scale): 125 g ai/ha; for Morningglory plant response rating: 500 g ai/ha, 0 to 100 scale where 0 is no effect and 100 is complete control
Procedure, shortened: as §1

barnyardgrass [8] = experiment: Test A preemergence; format: in vivo, Echinochloa crus-galli; conditions: for Barnyardgrass plant response rating (0 to 100 scale, 0 is no effect, 100 is complete control): 125 g ai/ha; for Barnyardgrass plant response rating: 500 g ai/ha, 0 to 100 scale where 0 is no effect and 100 is complete control
Procedure, shortened: as §1

Heteranthera limosa = experiment: Test B flooded paddy test; format: in vivo; conditions: Flood, 250 g ai/ha; 0 to 100 scale where 0 is no effect and 100 is complete control
Procedure, shortened: (§2)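 Scores from 0 (no effect) to 100 (complete control) are visual comparisons with controls, taken 13 to 15 days after compound was applied into floodwater 3 cm deep around 2-leaf plants.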

giant foxtail [9] = experiment: Test A preemergence; format: in vivo, Setaria faberii; conditions: for Foxtail, Giant plant response rating (0 to 100 scale): 125 g ai/ha; for Foxtail, Giant plant response rating: 500 g ai/ha, 0 to 100 scale where 0 is no effect and 100 is complete control
Procedure, shortened: as §1

large (Lg) crabgrass [10] = experiment: Test A preemergence; format: in vivo, Digitaria sanguinalis; conditions: for Crabgrass, Large plant response rating (0 to 100 scale): 125 g ai/ha; for Crabgrass, Large plant response rating: 500 g ai/ha, 0 to 100 scale where 0 is no effect and 100 is complete control
Procedure, shortened: as §1

wheat [11] = experiment: Test A preemergence; format: in vivo, Triticum aestivum; conditions: for Wheat plant response rating (0 to 100 scale): 125 g ai/ha; for Wheat plant response rating: 500 g ai/ha, 0 to 100 scale where 0 is no effect and 100 is complete control
Procedure, shortened: as §1

barnyardgrass [12] = experiment: Test B flooded paddy test; format: in vivo, Echinochloa crus-galli; conditions: Flood, 250 g ai/ha; 0 to 100 scale where 0 is no effect and 100 is complete control
Procedure, shortened: as §2

giant foxtail [13] = experiment: Test A postemergence; format: in vivo, Setaria faberii; conditions: 0 to 100 scale where 0 is no effect and 100 is complete control; for Foxtail, Giant plant response rating: 125 g ai/ha; for Plant response rating, Foxtail, Giant: 500 g ai/ha
Procedure, shortened: as §1

rice = experiment: Test B flooded paddy test; format: in vivo, Oryza sativa; conditions: Flood, 250 g ai/ha; 0 to 100 scale where 0 is no effect and 100 is complete control
Procedure, shortened: as §2

velvetleaf [14] = experiment: Test A preemergence; format: in vivo, Abutilon theophrasti; conditions: for Velvetleaf plant response rating (0 to 100 scale): 125 g ai/ha; for Velvetleaf plant response rating: 500 g ai/ha, 0 to 100 scale where 0 is no effect and 100 is complete control
Procedure, shortened: as §1

sedge, umbrella = experiment: Test B flooded paddy test; format: in vivo, Cyperus difformis; conditions: Flood, 250 g ai/ha; 0 to 100 scale where 0 is no effect and 100 is complete control
Procedure, shortened: as §2

large (Lg) crabgrass [15] = experiment: Test A postemergence; format: in vivo, Digitaria sanguinalis; conditions: 0 to 100 scale where 0 is no effect and 100 is complete control; for Crabgrass, Large plant response rating: 125 g ai/ha; for Plant response rating, Crabgrass, Large: 500 g ai/ha
Procedure, shortened: as §1

morningglory [16] = experiment: Test A postemergence; format: in vivo, Ipomoea spp.; conditions: 0 to 100 scale where 0 is no effect and 100 is complete control; for Morningglory plant response rating: 125 g ai/ha; for Plant response rating, Morningglory: 500 g ai/ha
Procedure, shortened: as §1

pigweed [17] = experiment: Test A preemergence; format: in vivo, Amaranthus retroflexus; conditions: for Pigweed plant response rating (0 to 100 scale): 125 g ai/ha; for Pigweed plant response rating: 500 g ai/ha, 0 to 100 scale where 0 is no effect and 100 is complete control
Procedure, shortened: as §1

| Structure (SMILES) | Corn plant response rating (0 to 100 scale) (corn [1]) | Corn plant response rating (corn [1]) | Wheat plant response rating (wheat [2]) | Plant response rating, Wheat (wheat [2]) | Pigweed plant response rating (pigweed [3]) | Plant response rating, Pigweed (pigweed [3]) | Velvetleaf plant response rating (velvetleaf [4]) | Plant response rating, Velvetleaf (velvetleaf [4]) | Corn plant response rating (corn [5]) | Plant response rating, Corn (corn [5]) | Barnyardgrass plant response rating (barnyardgrass [6]) | Plant response rating, Barnyardgrass (barnyardgrass [6]) | Morningglory plant response rating (0 to 100 scale) (morningglory [7]) | Morningglory plant response rating (morningglory [7]) | Barnyardgrass plant response rating (0 to 100 scale, 0 is no effect, 100 is complete control) (barnyardgrass [8]) | Barnyardgrass plant response rating (barnyardgrass [8]) | Plant response rating, Ducksalad (Heteranthera limosa) | Foxtail, Giant plant response rating (0 to 100 scale) (giant foxtail [9]) | Foxtail, Giant plant response rating (giant foxtail [9]) | Crabgrass, Large plant response rating (0 to 100 scale) (large (Lg) crabgrass [10]) | other results |
| --- | --- | --- | --- | --- | --- | --- | --- | --- | --- | --- | --- | --- | --- | --- | --- | --- | --- | --- | --- | --- | --- |
| O=[N+]([O-])c1cnc(Oc2ccccc2-n2cc(Br)cn2)nc1 [Compound 225] | 0 | 0 | 0 | 0 | 0 | 0 | 0 | 0 | 0 | 0 | 0 | 10 | 0 | 0 | 0 | 0 | 0 | 0 | 0 | 0 | Crabgrass, Large plant response rating (large (Lg) crabgrass [10]): 0; Wheat plant response rating (0 to 100 scale) (wheat [11]): 0; Wheat plant response rating (wheat [11]): 0; Plant response rating, Barnyardgrass (barnyardgrass [12]): 0; Foxtail, Giant plant response rating (giant foxtail [13]): 0; Plant response rating, Foxtail, Giant (giant foxtail [13]): 0; Plant response rating, Rice (rice): 0; Velvetleaf plant response rating (0 to 100 scale) (velvetleaf [14]): 0; Velvetleaf plant response rating (velvetleaf [14]): 0; Plant response rating, Sedge, Umbrella (sedge, umbrella): 0; Crabgrass, Large plant response rating (large (Lg) crabgrass [15]): 0; Plant response rating, Crabgrass, Large (large (Lg) crabgrass [15]): 10; Morningglory plant response rating (morningglory [16]): 0; Plant response rating, Morningglory (morningglory [16]): 0; Pigweed plant response rating (0 to 100 scale) (pigweed [17]): 0; Pigweed plant response rating (pigweed [17]): 0 |
| N#Cc1cccc(Oc2ncc(Cl)cn2)c1-n1cc(Br)cn1 [Compound 235] | 0 | 0 | 0 | 0 | 90 | 100 | 30 | 30 | 0 | 0 | 0 | 0 | 0 | 0 | 0 | 10 | 0 | 30 | 100 | 70 | Crabgrass, Large plant response rating (large (Lg) crabgrass [10]): 100; Wheat plant response rating (0 to 100 scale) (wheat [11]): 0; Wheat plant response rating (wheat [11]): 0; Plant response rating, Barnyardgrass (barnyardgrass [12]): 0; Foxtail, Giant plant response rating (giant foxtail [13]): 0; Plant response rating, Foxtail, Giant (giant foxtail [13]): 30; Plant response rating, Rice (rice): 0; Velvetleaf plant response rating (0 to 100 scale) (velvetleaf [14]): 0; Velvetleaf plant response rating (velvetleaf [14]): 0; Plant response rating, Sedge, Umbrella (sedge, umbrella): 0; Crabgrass, Large plant response rating (large (Lg) crabgrass [15]): 10; Plant response rating, Crabgrass, Large (large (Lg) crabgrass [15]): 30; Morningglory plant response rating (morningglory [16]): 30; Plant response rating, Morningglory (morningglory [16]): 30; Pigweed plant response rating (0 to 100 scale) (pigweed [17]): 90; Pigweed plant response rating (pigweed [17]): 100 |
